# From patent US9555029B2 (HIKMA PHARMACEUTICALS, priority 2013, dated 2017)
# Where two headings read alike, the source gives them in different places.
# Key:
# [1] = Method: (§1) Safety was evaluated through assessment of adverse events, standard laboratory evaluations, physical examination (including vital signs) and ECG. Safety was determined by descriptive statistics.
# (§2) The inhibitor dosage form was an oral 200 mg tablet of Diflucan® (fluconazole, from Pfizer).
# (§3) The fluconazole trial differed from the Example 2 protocol as follows.
# [2] = cited from earlier work; for Kel / T1/2el: arithmetic mean; for AUCT / Cmax: geometric mean
# [3] = Colchicine pharmacokinetics coadministered with fluconazole
# Method: as §2, §3
# [4] = clinical; conditions: male, human, in vivo
# [5] = cited from earlier work; for AUCT / Cmax: geometric mean
# [6] = Incidence of adverse effects for colchicine coadministered with voriconazole
# Method: as §1
# [7] = of 12 subjects, colchicine + fluconazole
# [8] = of 12 subjects, fluconazole study
# [9] = Treatment-1: colchicine 0.6 mg alone (day 1, fasted), azithromycin study
# [10] = Treatment-2: colchicine 0.6 mg (day 19) + azithromycin 500 mg day 15, 250 mg once daily days 16-19
# [11] = Treatment-1 (day 1): colchicine 0.6 mg alone, fasted, fluconazole study, mean
# [12] = Treatment-2 (day 9): colchicine 0.6 mg + fluconazole 200 mg after double dose day 4, once daily days 5-8, fasted, mean
# [13] = co-administration of fluconazole vs colchicine alone
# [14] = Treatment-1: colchicine 0.6 mg alone (day 1, fasted), ketoconazole study, arithmetic mean
# [15] = Treatment-1: colchicine 0.6 mg alone (day 1, fasted), ketoconazole study
# [16] = Treatment-2: colchicine 0.6 mg (day 19) + ketoconazole 200 mg twice daily
# [17] = of 12 subjects, colchicine + voriconazole
# [18] = of 12 subjects, voriconazole study
compound,measurement,setting,value
"COc1cc2c(c(OC)c1OC)-c1ccc(OC)c(=O)cc1[C@@H](NC(C)=O)CC2 [Colchicine, (S)N-(5,6,7,9-tetrahydro-1,2,3,10-tetramethoxy-9-oxobenzo[alpha]heptalen-7-yl)acetamide]",Total number of adverse events after Treatment-2,[1]; colchicine + fluconazole,3
same,Number of adverse events requiring medication after Treatment-1,[1]; fluconazole study,None
same,Number of serious adverse events or deaths,[1]; fluconazole study,None
same,Total number of adverse events after Treatment-1,[1]; fluconazole study,7
same,Number of subjects experiencing adverse events after Treatment-2,[1]; [7],3
same,Percent of subjects experiencing adverse events after Treatment-2,[1]; [7],25.0%
same,Number of subjects experiencing adverse events after Treatment-1,[1]; [8],3
same,Percent of subjects experiencing adverse events after Treatment-1,[1]; [8],25.0%
same,Kel,[2]; [9],0.147 h⁻¹
same,T1/2el,[2]; [9],6.07 h
same,CLTOT/F,[2]; [9],50.24 L/h
same,AUCT,[2]; [9],"11,980 pg · h/mL"
same,Cmax,[2]; [9],"2,740 pg/mL"
same,Kel,[2]; [10],0.1426 h⁻¹
same,T1/2el,[2]; [10],6.71 h
same,CLTOT/F,[2]; [10],35.01 L/h
same,AUCT,[2]; [10],"17,160 pg · h/mL"
same,Cmax,[2]; [10],"3,050 pg/mL"
same,AUCT/∞,[3]; [11],85.33%
same,Kel,[3]; [11],0.0206 h⁻¹
same,T1/2el,[3]; [11],34.05 h
same,AUCT/∞,[3]; [12],83.54%
same,Kel,[3]; [12],0.0204 h⁻¹
same,T1/2el,[3]; [12],34.51 h
same,Increase of mean Cmax for colchicine,[3]; [13],13%
same,Increase of overall exposure of colchicine (AUC),[3]; [13],40%
same,CL/F,"[3]; male, human, in vivo, 0.6 mg",610 mL/min
same,Tmax,"[3]; male, human, in vivo, 0.6 mg",1.25 h
same,Vd/F,"[3]; male, human, in vivo, 0.6 mg",1810 L
same,AUC(0-t),"[3]; male, human, in vivo, 0.6 mg, AUCT GEOMETRIC LSMEANS, Treatment-1: colchicine 0.6 mg alone, fluconazole study",0.0145 µg·h/mL
same,AUC(0-t),"[3]; male, human, in vivo, 0.6 mg, AUCT, Treatment-1 (day 1): colchicine 0.6 mg alone, fasted, fluconazole study, mean",0.0149 µg·h/mL
same,AUC(0-inf),"[3]; male, human, in vivo, 0.6 mg, AUC∞ GEOMETRIC LSMEANS, Treatment-1: colchicine 0.6 mg alone, fluconazole study",0.017 µg·h/mL
same,AUC(0-inf),"[3]; male, human, in vivo, 0.6 mg, AUC∞, Treatment-1 (day 1): colchicine 0.6 mg alone, fasted, fluconazole study, mean",0.0175 µg·h/mL
same,Cmax,"[3]; male, human, in vivo, 0.6 mg, Cmax GEOMETRIC LSMEANS, Treatment-1: colchicine 0.6 mg alone, fluconazole study",1.81 ng/mL
same,Cmax,"[3]; male, human, in vivo, 0.6 mg, Cmax, Treatment-1 (day 1): colchicine 0.6 mg alone, fasted, fluconazole study, mean",1.93 ng/mL
same,AUC(0-t),"[3]; male, human, in vivo, AUCT GEOMETRIC LSMEANS, Treatment-2: colchicine 0.6 mg + fluconazole",0.0204 µg·h/mL
same,AUC(0-t),"[3]; male, human, in vivo, AUCT, Treatment-2 (day 9): colchicine 0.6 mg + fluconazole 200 mg after double dose day 4, once daily days 5-8, fasted, mean",0.0213 µg·h/mL
same,AUC(0-inf),"[3]; male, human, in vivo, AUC∞ GEOMETRIC LSMEANS, Treatment-2: colchicine 0.6 mg + fluconazole",0.0244 µg·h/mL
same,AUC(0-inf),"[3]; male, human, in vivo, AUC∞, Treatment-2 (day 9): colchicine 0.6 mg + fluconazole 200 mg after double dose day 4, once daily days 5-8, fasted, mean",0.0256 µg·h/mL
same,Cmax,"[3]; male, human, in vivo, Cmax GEOMETRIC LSMEANS, Treatment-2: colchicine 0.6 mg + fluconazole",2.05 ng/mL
same,Cmax,"[3]; male, human, in vivo, Cmax, Treatment-2 (day 9): colchicine 0.6 mg + fluconazole 200 mg after double dose day 4, once daily days 5-8, fasted, mean",2.3 ng/mL
same,CL/F,[4]; 0.6 mg,558 mL/min
same,Tmax,[4]; 0.6 mg,1.5 h
same,Vd/F,[4]; 0.6 mg,1410 L
same,AUC(0-t),"[4]; 0.6 mg, AUCT GEOMETRIC LSMEANS, Treatment-1: colchicine 0.6 mg alone, propafenone study",0.0162 µg·h/mL
same,AUC(0-t),"[4]; 0.6 mg, AUCT, Treatment-1 (day 1): colchicine 0.6 mg alone, fasted, propafenone study, mean",0.0166 µg·h/mL
same,AUC(0-inf),"[4]; 0.6 mg, AUC∞ GEOMETRIC LSMEANS, Treatment-1: colchicine 0.6 mg alone, propafenone study",0.0184 µg·h/mL
same,AUC(0-inf),"[4]; 0.6 mg, AUC∞, Treatment-1 (day 1): colchicine 0.6 mg alone, fasted, propafenone study, mean",0.0189 µg·h/mL
same,Cmax,"[4]; 0.6 mg, Cmax GEOMETRIC LSMEANS, Treatment-1: colchicine 0.6 mg alone, propafenone study",2.05 ng/mL
same,Cmax,"[4]; 0.6 mg, Cmax, Treatment-1 (day 1): colchicine 0.6 mg alone, fasted, propafenone study, mean",2.12 ng/mL
same,AUC(0-t),"[4]; AUCT GEOMETRIC LSMEANS, Treatment-2: colchicine 0.6 mg + propafenone",0.0164 µg·h/mL
same,AUC(0-t),"[4]; AUCT, Treatment-2 (day 9): colchicine 0.6 mg + propafenone 225 mg after twice daily days 4-8, fasted, mean",0.0168 µg·h/mL
same,AUC(0-inf),"[4]; AUC∞ GEOMETRIC LSMEANS, Treatment-2: colchicine 0.6 mg + propafenone",0.0184 µg·h/mL
same,AUC(0-inf),"[4]; AUC∞, Treatment-2 (day 9): colchicine 0.6 mg + propafenone 225 mg after twice daily days 4-8, fasted, mean",0.0189 µg·h/mL
same,Cmax,"[4]; Cmax GEOMETRIC LSMEANS, Treatment-2: colchicine 0.6 mg + propafenone",2.18 ng/mL
same,Cmax,"[4]; Cmax, Treatment-2 (day 9): colchicine 0.6 mg + propafenone 225 mg after twice daily days 4-8, fasted, mean",2.21 ng/mL
same,Kel,[5]; [14],0.1491 h⁻¹
same,T1/2el,[5]; [14],6.28 h
same,CLTOT/F,[5]; [15],49.3 L/h
same,AUCT,[5]; [15],"11,990 pg · h/mL"
same,Cmax,[5]; [15],"2,780 pg/mL"
same,T1/2el,"[5]; Treatment-2: colchicine 0.6 mg (day 19) + ketoconazole 200 mg twice daily, arithmetic mean",26.06 h
same,CLTOT/F,[5]; [16],14.8 L/h
same,AUCT,[5]; [16],"34,380 pg · h/mL"
same,Cmax,[5]; [16],"5,270 pg/mL"
same,Total number of adverse events after Treatment-2,[6]; colchicine + voriconazole,2
same,Number of subjects experiencing adverse events after Treatment-2,[6]; [17],1
same,Percent of subjects experiencing adverse events after Treatment-2,[6]; [17],8.3%
same,Number of subjects experiencing adverse events after Treatment-1,[6]; [18],7
same,Percent of subjects experiencing adverse events after Treatment-1,[6]; [18],58.3%
same,Number of adverse events requiring medication after Treatment-1,[6]; voriconazole study,None
same,Number of serious adverse events or deaths,[6]; voriconazole study,None
same,Total number of adverse events after Treatment-1,[6]; voriconazole study,20
